In patent US5352804A, “Isolation and structure of Halistatin 2” (Arizona Board of Regents, a body corporate, acting on …, priority 1993, dated 1994):
Where two headings read alike, the source gives them in different places.

Experiments:
Assay in all cases: NCI human tumor in vitro primary screen
Assay type in all cases: cell-based
[1] = system: SK-MEL-28; settings: melanoma
Source text: (§1) Only two hundred years ago, many diseases ravaged humankind. Many of these diseases now have been controlled or eradicated. In the development of the means to treat or control these diseases, work with the appropriate common experimental animals was of critical importance. With the various types of cancers, and with the HIV virus, such work is presently ongoing. The research for the treatment of various types of cancer is coordinated in the United States by the National Cancer Institute (NCI). NCI, as a government entity, has been charged with assisting anti-cancer research. To establish whether a substance has anti cancer activity, NCI has established a variety of protocols, one of which involves testing the candidate substance against a cell line panel containing 60 human tumor cell lines. This protocol has been verified and is generally accepted throughout the scientific community. This protocol and the established statistical means of evaluating the results obtained therefrom have been fully described in the literature. See Principles & Practice of Oncology PPO Updates, Volume 3, Number 10, Oct. 1989, by Michael R. Boyd, M.D., Ph.D., for an indepth description of the test protocol. The statistical analysis is explained in "Display and Analysis of Patterns of Differential Activity of Drugs Against Human Tumor Cell Lines: Development of Means Graph and COMPARE Algorithm" Journal of the National Cancer Institute Reports Vol. 81, No. 14, Pg. 1088, Jul. 14, 1989, by K. D. Paull et al. Both of these references are incorporated herein by this reference thereto.
(§2) Biological Testing; Data Display and Analysis; Screening Data Summary. Freshly isolated halistatin 2 was tested in the NCI's human tumor, disease-oriented in vitro primary screen, and data calculations performed. Table 3 is a composite prepared from mean graphs constructed from the averaged GI50 values from quadruplicate screenings of Halistatin 2.

[2] = system: SF-295; settings: CNS cancer
Source text: as §1, §2

[3] = system: TK-10; settings: renal cancer
Source text: as §1, §2

[4] = system: 786-0; settings: renal cancer
Source text: as §1, §2

[5] = system: HCT-15; settings: colon cancer
Source text: as §1, §2

[6] = system: OVCAR-8; settings: ovarian cancer
Source text: as §1, §2

[7] = system: DLD-1; settings: colon cancer
Source text: as §1, §2

[8] = system: HCT-116; settings: colon cancer
Source text: as §1, §2

[9] = system: M19-MEL; settings: melanoma
Source text: as §1, §2

[10] = system: LOX IMVI; settings: melanoma
Source text: as §1, §2

[11] = system: HL-60TB; settings: leukemia
Source text: as §1, §2

[12] = system: NCI-H460
Source text: as §1, §2

[13] = system: KM12; settings: colon cancer
Source text: as §1, §2

[14] = system: CCRF-CEM; settings: leukemia
Source text: as §1, §2

[15] = system: U251; settings: U-251, CNS cancer
Source text: as §1, §2

[16] = system: SNB-78; settings: CNS cancer
Source text: as §1, §2

[17] = system: RPMI-8226; settings: leukemia
Source text: as §1, §2

[18] = system: MOLT-4; settings: leukemia
Source text: as §1, §2

[19] = system: A498; settings: renal cancer
Source text: as §1, §2

[20] = system: OVCAR-3; settings: ovarian cancer
Source text: as §1, §2

[21] = system: SN12C; settings: renal cancer
Source text: as §1, §2

[22] = system: CAKI-1
Source text: as §1, §2

[23] = system: NCI-H23
Source text: as §1, §2

[24] = system: RXF-393
Source text: as §1, §2

[25] = read-out: Log10 GI50 (converted)
[26] = read-out: Log10 TGI (converted)
[27] = read-out: averaged negative log10 GI50 (converted)
[28] = non-small cell lung cancer, read-out: averaged negative log10 GI50 (converted)

C=C1CC2CCC34CC5OC6C(O3)C3OC(CCC3OC6(O)C5O4)CC(=O)OC3C(CC4OC(CCC1O2)CC(C)C4=C)OC1CC2OC4(CC2OC1C3C)CC1OC2(CC(C)C3OC5CC(C(O)CO)OC5CC3O2)CC(C)C1O4 (centres unmarked) [halistatin 2]
GI50 [1, 25]: 1 nM | IC (TGI) [1, 26]: 10 nM | GI50 [1, 27]: 1 nM | GI50 [2, 25]: 0.182 nM | IC (TGI) [2, 26]: 5.25 nM | GI50 [2, 27]: 0.182 nM | GI50 [3, 25]: 5.5 nM | IC (TGI) [3, 26]: 10 nM | GI50 [3, 27]: 5.5 nM | GI50 [4, 25]: 0.389 nM | IC (TGI) [4, 26]: 10 nM | GI50 [4, 27]: 0.389 nM | GI50 [5, 25]: 5.5 nM | IC (TGI) [5, 26]: 10 nM | GI50 [5, 27]: 5.5 nM | GI50 [6, 25]: 1.29 nM | IC (TGI) [6, 26]: 7.08 nM | GI50 [6, 27]: 1.29 nM | GI50 [7, 25]: 1.2 nM | IC (TGI) [7, 26]: 10 nM | GI50 [7, 27]: 1.2 nM | GI50 [8, 25]: 0.55 nM | IC (TGI) [8, 26]: 10 nM | GI50 [8, 27]: 0.55 nM | GI50 [9, 25]: 0.331 nM | IC (TGI) [9, 26]: 5.01 nM | GI50 [10, 25]: 0.501 nM | IC (TGI) [10, 26]: 4.57 nM | GI50 [10, 27]: 0.501 nM | GI50 ([11]; HL-60(TB), read-out: Log10 GI50 (converted)): 0.158 nM | IC (TGI) ([11]; HL-60(TB), read-out: Log10 TGI (converted)): 1 nM | GI50 ([11]; HL-60TB, read-out: averaged negative log10 GI50 (converted)): 0.158 nM | GI50 ([12]; NCl-H460, non-small cell lung cancer, read-out: Log10 GI50 (converted)): 0.38 nM | IC (TGI) ([12]; NCl-H460, non-small cell lung cancer, read-out: Log10 TGI (converted)): 6.76 nM | GI50 [12, 28]: 0.38 nM | GI50 [13, 25]: 0.537 nM | IC (TGI) [13, 26]: 10 nM | GI50 [13, 27]: 0.537 nM | GI50 [14, 25]: 0.2 nM | IC (TGI) [14, 26]: 4.27 nM | GI50 [14, 27]: 0.2 nM | GI50 [15, 25]: 0.479 nM | IC (TGI) [15, 26]: 9.33 nM | GI50 [15, 27]: 0.479 nM | GI50 [16, 25]: 0.12 nM | IC (TGI) [16, 26]: 10 nM | GI50 [16, 27]: 0.12 nM | GI50 [17, 25]: 0.407 nM | IC (TGI) [17, 26]: 10 nM | GI50 [17, 27]: 0.407 nM | GI50 [18, 25]: 0.407 nM | IC (TGI) [18, 26]: 10 nM | GI50 [18, 27]: 0.407 nM | GI50 [19, 25]: 1.82 nM | IC (TGI) [19, 26]: 10 nM | GI50 [19, 27]: 1.82 nM | GI50 [20, 25]: 0.282 nM | IC (TGI) [20, 26]: 1.58 nM | GI50 [20, 27]: 0.282 nM | GI50 [21, 25]: 1.82 nM | IC (TGI) [21, 26]: 10 nM | GI50 [21, 27]: 1.82 nM | GI50 ([22]; CAKl-1, renal cancer, read-out: Log10 GI50 (converted)): 1.29 nM | IC (TGI) ([22]; CAKl-1, renal cancer, read-out: Log10 TGI (converted)): 10 nM | GI50 ([22]; renal cancer, read-out: averaged negative log10 GI50 (converted)): 1.29 nM | GI50 ([23]; NCl-H23, non-small cell lung cancer, read-out: Log10 GI50 (converted)): 0.661 nM | IC (TGI) ([23]; NCl-H23, non-small cell lung cancer, read-out: Log10 TGI (converted)): 6.76 nM | GI50 [23, 28]: 0.661 nM | GI50 ([24]; RXF 393, printed RXP-393, renal cancer, read-out: Log10 GI50 (converted)): 0.479 nM | IC (TGI) ([24]; RXF 393, printed RXP-393, renal cancer, read-out: Log10 TGI (converted)): 3.09 nM | GI50 ([24]; RXF-393, renal cancer, read-out: averaged negative log10 GI50 (converted)): 0.479 nM
